The CC50 is the concentration giving 50% cytotoxicity. The EC50 is the midpoint of the concentration-response curve.

This note sets out measurements from US20230381142A1, “ANTILEISHMANIAL COMPOUNDS, COMPOSITIONS AND USE THEREOF” (TRUSTEES OF BOSTON UNIVERSITY, priority 2022, published 2023).

Tested on in one data set: not listed separately
Description: GSK inMac assay, host cell toxicity readout (LD MAC). It is filed as cell-based, human. Conditions: human; footnote c; read-out: THP-1 Host Cell CC50. On the procedure:
(§1) The intramacrophage Leishmania donovani activity assay (LD AMMAC) at GlaxoSmithKline was performed as described.
(§2) Given the literature precedents described above and the apparent narrow tolerance for R^3 substitutions observed in the primary screen compounds, a thorough and methodical assessment was undertaken of tolerated groups at the three points of diversity (R^1/R^2/R^3) for the core. At this stage of the project, all analogues were assessed using a battery of assays performed in-house at GlaxoSmithKline. For antileishmanial activity, GSK's inMac assay was utilized. This assay provides two readouts of compound potency: average number of intracellular amastigotes per infected cell (AMMAC) EC50, percentage of infected cells per well (INFCELL) EC50, as well as a toxicity output derived from the number of host cells (MAC EC50). In addition, compounds were assessed for toxicity against HepG2 cells (HEPG2 EC50). Here, AMMAC EC50 values were focused on for relative potency assessments. […] It should be noted that for all compounds assessed in this project, the measured toxicity against THP-1 macrophages either equaled or exceeded that of HepG2 hepatocytes, therefore the MAC SI is used here as the more conservative estimate of therapeutic index.
With `COc1ccc(N2C(=O)c3[nH]nc(CC(C)C)c3C2c2c(Cl)cccc2Cl)cc1` (stereo not shown) [BUCMD00797], the CC50 was found to be 2.5 µM. For the molecule `CC(C)Cc1n[nH]c2c1C(c1ccccc1Br)N(CCN1CCCC1)C2=O` (stereo not shown) [BUCMD00798], the CC50 is more than 50 µM.

Take `CC(C)Cc1n[nH]c2c1C(c1ccccc1Cl)N(CCN1CCCC1)C2=O` (stereo not shown) [BUCMD00799]: the cytotoxic concentration (CC50) is more than 50 µM. Still for that read-out and setting: next, `COc1ccc(N2C(=O)c3[nH]nc(CC(C)C)c3C2c2ccc(F)cc2C)cc1` (stereo not shown) [BUCMD00800]: 25.1 µM; `COc1ccc(N2C(=O)c3[nH]nc(CC(C)C)c3C2c2ccnnc2)cc1` (stereo not shown) [BUCMD00801]: more than 50 µM.

In the case of `COc1ccc(N2C(=O)c3[nH]nc(CC(C)C)c3C2c2ccc(F)c(C(F)(F)F)c2)cc1` (stereo not shown) [BUCMD00802], the cytotoxic concentration (CC50) amounted to 25.1 µM. Same read-out and setting: next, `COc1cc(N2C(=O)c3[nH]nc(CC(C)C)c3C2c2cccc(C(F)(F)F)c2)cc(OC)c1OC` (stereo not shown) [BUCMD00803]: 12.6 µM; `CC(C)Cc1n[nH]c2c1C(c1cccc(C(F)(F)F)c1)N(c1ccc3ncnn3c1)C2=O` (stereo not shown) [BUCMD00804]: not below 50.1 µM. Still for that read-out and setting: next, `CC(C)Cc1n[nH]c2c1C(c1ccc(F)cc1)N(c1cccc(C#N)c1)C2=O` (stereo not shown) [BUCMD00806]: more than 50 µM.

Staying with this data set, now noted: human; host THP-1 cells.
`COc1ccc(N2C(=O)c3c(c(CC(C)C)nn3C)C2c2ccc(Br)cc2)cc1` (stereo not shown) [CMLD006598] showed a CC50 not below 50.1 µM.

The subject of another data set is L. donovani intracellular amastigotes in B10R cells. Briefly: UCSD L. donovani infection assay (Assay Conditions D). It is filed as cell-based. Conditions: B10R cells. On the procedure:
(§3) Assay Conditions D: B10R cells (CVCL_0155) were seeded at 300 cells/well, and L. donovani WT promastigotes in stationary phase (7th day after passage) were added at 6,000 parasites/well (ratio of 20 parasites/cell). Both cells and parasites were seeded in DMEM High-Glucose medium (Gibco, cat. no. 11995065) containing 5% Fetal Bovine Serum (Sigma-Aldrich, cat. no. F2442) and 1% Penicillin-Streptomycin (Gibco, cat. no. 15140122). Cells and parasites were incubated in the presence of the compounds for 72 h at 37° C. and 5% C02. Plates were then fixed with 4% formaldehyde solution for at least 1 h, then washed with 1×PBS and stained with 5 μg/mL DAPI. Plates were read using an ImageXpress microscope (Molecular Devices) and analyzed by MetaXpress software (Molecular Devices) using a custom module optimized for this assay. […] Compounds were tested in a 10-point 2-fold serial dilution in 3 technical replicates, and 2 biological replicates. After 72 h, plates were fixed and stained with DAPI as described above. Images were acquired on an ImageXpress microscope, and analyzed using the MetaXpress custom module.
as §3, with “Compounds were obtained as 0.2 μmoles of dried film for primary single point screening. Each compound was diluted in DMSO to 10 μM final testing concentration. These compounds were tested in 2 biological replicates. The compounds were pre-spotted onto 384-well assay plates in single concentration.” for “Assay Conditions D:”, “CO2.” for “C02.”, “module. The DRCs were plotted, half-effective concentration (EC50) and half-cytotoxic concentration (CC50) were calculated using GraphPad Prism Software, version 6.05 (GraphPad Software, San Diego, CA).” for “module.”
For `Cc1ccsc1C1c2c(CC(C)C)n[nH]c2C(=O)N1c1ccn(C)n1` (stereo not shown) [BUCMD00660], the “L. donovani amastigotes EC75 (μM, B10R cells)” value is more than 10 µM. On the same count and under the same terms, next, `CC(C)Cc1n[nH]c2c1C(c1ccccc1C(F)(F)F)N(c1ccn(C)n1)C2=O` (stereo not shown) [BUCMD00661]: more than 10 µM; `CC(C)Cc1n[nH]c2c1C(c1sccc1Br)N(c1ccn(C)n1)C2=O` (stereo not shown) [BUCMD00662]: more than 10 µM.

In the case of `CCn1cc(N2C(=O)c3[nH]nc(CC(C)C)c3C2c2ccc(F)cc2C)cn1` (stereo not shown) [BUCMD00663], the “L. donovani amastigotes EC75 (μM, B10R cells)” value came out at 4.0 µM. In the case of `CCn1cc(N2C(=O)c3[nH]nc(CC(C)C)c3C2c2ccc(Br)cc2F)cn1` (stereo not shown) [BUCMD00664], the “L. donovani amastigotes EC75 (μM, B10R cells)” value is more than 10 µM.

Take `CCn1cc(N2C(=O)c3[nH]nc(CC(C)C)c3C2c2ccc(F)cc2Cl)cn1` (stereo not shown) [BUCMD00665]: the “L. donovani amastigotes EC75 (μM, B10R cells)” value was more than 10 µM. Same read-out and setting: next, `CCn1cc(N2C(=O)c3[nH]nc(CC(C)C)c3C2c2ccc(Cl)cc2F)cn1` (stereo not shown) [BUCMD00666]: more than 10 µM; `CCn1cc(N2C(=O)c3[nH]nc(CC(C)C)c3C2c2ccccc2C)cn1` (stereo not shown) [BUCMD00667]: more than 10 µM; `CCn1cc(N2C(=O)c3[nH]nc(CC(C)C)c3C2c2ccccc2Cl)cn1` (stereo not shown) [BUCMD00668]: 5.8 µM. On the same count and under the same terms, next, `CCn1cc(N2C(=O)c3[nH]nc(CC(C)C)c3C2c2ccc(F)cc2F)cn1` (stereo not shown) [BUCMD00670]: more than 10 µM; `CCn1cc(N2C(=O)c3[nH]nc(CC(C)C)c3C2c2sccc2C)cn1` (stereo not shown) [BUCMD00672]: 6.9 µM. Regarding `CC(C)Cc1n[nH]c2c1C(c1ccc(F)cc1Cl)N(c1cnn(C(C)C)c1)C2=O` (stereo not shown) [BUCMD00674], the “L. donovani amastigotes EC75 (μM, B10R cells)” value turned out to be 10.0 µM. `CC(C)Cc1n[nH]c2c1C(c1ccc(Cl)cc1F)N(c1cnn(C(C)C)c1)C2=O` (stereo not shown) [BUCMD00675]: the “L. donovani amastigotes EC75 (μM, B10R cells)” value was more than 10 µM. On the same count and under the same terms, next, `CC(C)Cc1n[nH]c2c1C(c1ccccc1Cl)N(c1cnn(C(C)C)c1)C2=O` (stereo not shown) [BUCMD00676]: more than 10 µM; `Cc1ccccc1C1c2c(CC(C)C)n[nH]c2C(=O)N1c1cnn(C(C)C)c1` (stereo not shown) [BUCMD00677]: more than 10 µM. Same read-out and setting: next, `CC(C)Cc1n[nH]c2c1C(c1ccc(F)cc1F)N(c1cnn(C(C)C)c1)C2=O` (stereo not shown) [BUCMD00678]: more than 10 µM; `CC(C)Cc1n[nH]c2c1C(c1ccccc1C(F)(F)F)N(c1cnn(C(C)C)c1)C2=O` (stereo not shown) [BUCMD00679]: 10.4 µM; `Cc1ccsc1C1c2c(CC(C)C)n[nH]c2C(=O)N1c1cnn(C(C)C)c1` (stereo not shown) [BUCMD00680]: more than 10 µM.

As to `Cc1cc(F)ccc1C1c2c(CC(C)C)n[nH]c2C(=O)N1c1cncc(F)c1` (stereo not shown) [BUCMD00693], the “L. donovani amastigotes EC75 (μM, B10R cells)” value is more than 10 µM. As for `CC(C)Cc1n[nH]c2c1C(c1ccccc1Cl)N(c1cncc(F)c1)C2=O` (stereo not shown) [BUCMD00696], the “L. donovani amastigotes EC75 (μM, B10R cells)” value is more than 10 µM.

In the case of `Cc1ccccc1C1c2c(CC(C)C)n[nH]c2C(=O)N1c1cncc(F)c1` (stereo not shown) [BUCMD00697], the “L. donovani amastigotes EC75 (μM, B10R cells)” value was determined as 2.6 µM.

Consider `CC(C)Cc1n[nH]c2c1C(c1ccc(F)cc1F)N(c1cncc(F)c1)C2=O` (stereo not shown) [BUCMD00698], for which the “L. donovani amastigotes EC75 (μM, B10R cells)” value was determined as 2.3 µM. For `Cc1ccsc1C1c2c(CC(C)C)n[nH]c2C(=O)N1c1cncc(F)c1` (stereo not shown) [BUCMD00702], the “L. donovani amastigotes EC75 (μM, B10R cells)” value is 7.3 µM. Same read-out and setting: next, `CC(C)Cc1n[nH]c2c1C(c1ccccc1F)N(c1ccc(C(=O)N3CCCC3)cc1)C2=O` (stereo not shown) [BUCMD00715]: more than 10 µM; `CC(C)Cc1n[nH]c2c1C(c1ccc(F)c(F)c1)N(c1ccc(C(=O)N3CCCC3)cc1)C2=O` (stereo not shown) [BUCMD00716]: more than 10 µM.

For the molecule `CC(C)Cc1n[nH]c2c1C(c1ccccc1Cl)N(c1ccc(N3CCN(C)CC3)nc1)C2=O` (stereo not shown) [BUCMD00720], the “L. donovani amastigotes EC75 (μM, B10R cells)” value was determined as 5.1 µM. Same read-out and setting: next, `Cc1ccccc1C1c2c(CC(C)C)n[nH]c2C(=O)N1c1ccc(N2CCN(C)CC2)nc1` (stereo not shown) [BUCMD00721]: 5.0 µM; `Cc1cc(F)ccc1C1c2c(CC(C)C)n[nH]c2C(=O)N1c1ccc(C(=O)N2CCCC2)cc1` (stereo not shown) [BUCMD00726]: more than 10 µM. `CC(C)Cc1n[nH]c2c1C(c1ccccc1Cl)N(c1ccc(C(=O)N3CCCC3)cc1)C2=O` (stereo not shown) [BUCMD00727]: the “L. donovani amastigotes EC75 (μM, B10R cells)” value was more than 10 µM. On to `COc1ncc(N2C(=O)c3[nH]nc(CC(C)C)c3C2c2ccc(Cl)cc2F)cc1F` (stereo not shown) [BUCMD00731], for which the “L. donovani amastigotes EC75 (μM, B10R cells)” value was more than 10 µM.

For `COc1ncc(N2C(=O)c3[nH]nc(CC(C)C)c3C2c2ccccc2Cl)cc1F` (stereo not shown) [BUCMD00732], the “L. donovani amastigotes EC75 (μM, B10R cells)” value stood at 1.9 µM. Same read-out and setting: the same measure for `COc1ncc(N2C(=O)c3[nH]nc(CC(C)C)c3C2c2ccccc2C)cc1F` (stereo not shown) [BUCMD00733]: 1.0 µM; for `COc1ncc(N2C(=O)c3[nH]nc(CC(C)C)c3C2c2ccc(F)cc2F)cc1F` (stereo not shown) [BUCMD00734]: 1.5 µM. On the same count and under the same terms, next, `C#CCCCCOc1ccc(N2C(=O)c3[nH]nc(CC(C)C)c3C2c2ccc(F)cc2)cn1` (stereo not shown) [BUCMD00739]: more than 10 µM.

The same data set, now with this note: B10R cells; footnote d.
Regarding `CCn1cc(N2C(=O)c3[nH]nc(CC(C)C)c3C2c2ccc(F)cc2Br)cn1` (stereo not shown) [BUCMD00669], the “L. donovani amastigotes EC75 (B10R cells)” value worked out at 0.7 µM. As to `CC(C)Cc1n[nH]c2c1C(c1ccc(Cl)cc1F)N(c1cncc(F)c1)C2=O` (stereo not shown) [BUCMD00695], the “L. donovani amastigotes EC75 (B10R cells)” value worked out at 0.5 µM.

Another data set concerns L. donovani intracellular amastigotes infecting THP-1 macrophages. Description: GSK intramacrophage L. donovani assay (LD AMMAC, inMac; Assay Conditions C). The format is cell-based. To be noted: Leishmania donovani; THP-1 cells; values marked c; read-out: L. donovani amastigotes EC50 (THP-1 cells). How it is done:
Assay Conditions C: The intramacrophage Leishmania donovani activity assay was performed as described in Antimicrob Agents Chemother (2013) 57(7):2913-22.
as §1, §2
For `COc1ccc(N2C(=O)c3[nH]nc(CC(C)C)c3C2c2c(Cl)cccc2Cl)cc1` (stereo not shown) [BUCMD00797], the EC50 was 1 µM. Turning to `CC(C)Cc1n[nH]c2c1C(c1ccccc1Br)N(CCN1CCCC1)C2=O` (stereo not shown) [BUCMD00798], the EC50 came to 31.6 µM. As to `CC(C)Cc1n[nH]c2c1C(c1ccccc1Cl)N(CCN1CCCC1)C2=O` (stereo not shown) [BUCMD00799], the concentration for a half-maximal effect (EC50) was 20 µM. Same read-out and setting: next, `COc1ccc(N2C(=O)c3[nH]nc(CC(C)C)c3C2c2ccc(F)cc2C)cc1` (stereo not shown) [BUCMD00800]: 0.5 µM. Still for that read-out and setting: the same measure for `COc1ccc(N2C(=O)c3[nH]nc(CC(C)C)c3C2c2ccnnc2)cc1` (stereo not shown) [BUCMD00801]: more than 50 µM; for `COc1ccc(N2C(=O)c3[nH]nc(CC(C)C)c3C2c2ccc(F)c(C(F)(F)F)c2)cc1` (stereo not shown) [BUCMD00802]: 5 µM. Same read-out and setting: the same measure for `COc1cc(N2C(=O)c3[nH]nc(CC(C)C)c3C2c2cccc(C(F)(F)F)c2)cc(OC)c1OC` (stereo not shown) [BUCMD00803]: 5 µM; for `CC(C)Cc1n[nH]c2c1C(c1cccc(C(F)(F)F)c1)N(c1ccc3ncnn3c1)C2=O` (stereo not shown) [BUCMD00804]: 7.9 µM. On to `CC(C)Cc1n[nH]c2c1C(c1ccc(F)cc1)N(c1cccc(C#N)c1)C2=O` (stereo not shown) [BUCMD00806], for which the EC50 turned out to be 25.1 µM.
